# Results as given in publication PMC6152123, “Sites for Dynamic Protein-Carbohydrate Interactions of O- and C-Linked Mannosides on the E. coli FimH Adhesin” (Molecules : A Journal of Synthetic Chemistry and Natural …, 2017).
# Several values for one entry are separate records, joined by “and”; a condition that tells them apart may be missing. Equal entries are not always repeated. Where two headings read alike, the source gives them in different places.
# Assays:
# FimH lectin domain [1] = target: T1, FimH lectin domain (Escherichia coli, UniProt P08191); test: biochemical; assay type: binding, E. coli strain J96; conditions: for fold by which inhibition potential exceeds parent 115: Table 5
# FimH = conditions: read-out: Kd ITC (converted), cited from earlier work
# FimH lectin domain [2] = target: T1, FimH lectin domain; conditions: cited from earlier work
# FimH lectin domain [3] = target: T1, FimH lectin domain; test: SPR direct binding of FimH to receptor immobilized on sensor chip (steady state affinity); parameters: species or system E. coli strain J96; conditions: Ss: steady state affinity (Kd), direct binding of FimH to 5b coupled to CM5 sensor chip
# Method: The equilibrium dissociation constant Kd of FimH for the mannose derivatives was determined using a competition assay in solution. In this assay, the mannose derivatives compete with an immobilized Fab fragment from the monoclonal anti-FimH antibody 1C10 or with an immobilized 8-aminooctyl α-D-mannopyranoside (5b) for FimH binding, as described earlier [34]. The global kinetic constants ka, kd and Rmax of the FimH-ligand interaction of binding were fitted using the BiaEval software.
# [4] = Kd SPR (nM), solution affinity by SPR competition, Tables 1-3
# [5] = Kd (nM), Table 4, SPR detection, sulfonamide and amide spacers
# [6] = Table 5, SPR, C-linked mannopyranosides
# [7] = Kd (nM), Table 5, SPR, C-linked mannopyranosides
# [8] = Figure S19, fit of solution affinity model to inhibition curve
# [9] = KD(M), Figure S19, fit of solution affinity model to inhibition curve
# [10] = read-out: Kd SPR, solution affinity by SPR
# T1 sequence (P08191 22-179 limits assumed): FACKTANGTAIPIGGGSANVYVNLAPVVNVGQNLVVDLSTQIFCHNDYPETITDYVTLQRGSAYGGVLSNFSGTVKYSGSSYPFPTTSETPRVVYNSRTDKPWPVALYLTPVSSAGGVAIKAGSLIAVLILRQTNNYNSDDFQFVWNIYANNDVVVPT
structure (smiles),measurement,setting,value
OC[C@H]1O[C@H](OCC#Cc2cccnc2)[C@@H](O)[C@@H](O)[C@@H]1O [Compound 55],Kd,FimH lectin domain [1]; [4],83 ± 5.6 nM
C#CCO[C@H]1O[C@H](CO)[C@@H](O)[C@H](O)[C@@H]1O [Compound 41],Kd,FimH lectin domain [1]; [4],490 ± 55 nM
O=S(=O)(NCCO[C@H]1O[C@H](CO)[C@@H](O)[C@H](O)[C@@H]1O)c1cccc2ccccc12 [Compound 75],Kd,FimH lectin domain [1]; [5],148 ± 18 nM
OC[C@H]1O[C@H](C/C=C/c2cccc3ccccc23)[C@@H](O)[C@@H](O)[C@@H]1O [Compound 118],Kd (nM),FimH lectin domain [1]; [6],nf
same,Kd SPR (nM),FimH lectin domain [1]; Table S2,nf
same,Kd,FimH; Table S2,23 ± 5.5 nM
OC[C@H]1O[C@H](C/C=C/c2ccccc2)[C@@H](O)[C@@H](O)[C@@H]1O [Compound 115],Kd,FimH lectin domain [1]; [7],182 ± 25 nM
same,fold more active than amide-linked analog 91,FimH lectin domain [1]; SPR Kd,2 fold
OC[C@H]1O[C@H](OCCCSCc2ccccc2)[C@@H](O)[C@@H](O)[C@@H]1O [Compound 35],Kd,FimH lectin domain [1]; [4],16 ± 2.4 nM
CC(=O)Nc1ccc(NC(=O)C[C@H]2O[C@H](CO)[C@@H](O)[C@H](O)[C@@H]2O)cc1 [Compound 94],Kd,FimH lectin domain [1]; [5],227 ± 54 nM
CCCSCCC[C@H]1O[C@H](CO)[C@@H](O)[C@H](O)[C@@H]1O [Compound 108],Kd,FimH lectin domain [1]; [4],36 ± 9 nM
OC[C@H]1O[C@H](OC/C=C/c2ccccc2-c2ccccc2)[C@@H](O)[C@@H](O)[C@@H]1O [Compound 24],Kd,FimH lectin domain [1]; [4],4.3 ± 0.8 nM
"CC(=O)N[C@H]1[C@H](O[C@H]2[C@H](O)[C@@H](NC(C)=O)C(O)O[C@@H]2CO)O[C@H](CO)[C@@H](O[C@@H]2O[C@H](CO[C@H]3O[C@H](CO)[C@@H](O)[C@H](O)[C@@H]3O)[C@@H](O)[C@H](O[C@H]3O[C@H](CO)[C@@H](O)[C@H](O)[C@@H]3O)[C@@H]2O)[C@@H]1O (stereo partly shown) [oligomannoside-3, reference compound]",KA,FimH lectin domain [1]; [8],49462067.1 M⁻¹
same,Kd,"FimH lectin domain [1]; Figure S19, fit of solution affinity model to inhibition curve, read-out: KD",20.2 nM
same,Kd,"FimH lectin domain [2]; highest-affinity natural epitope for FimH, Fab IC10 chip, read-out: Kd",20 nM
CCCCCCO[C@H]1O[C@H](CO)[C@@H](O)[C@H](O)[C@@H]1O [hexyl],Kd,"FimH lectin domain [2]; solution affinity by SPR, read-out: Kd SPR",10 nM
O=C(C[C@H]1O[C@H](CO)[C@@H](O)[C@H](O)[C@@H]1O)Nc1ccc(O)cc1 [Compound 95],Kd,FimH lectin domain [1]; [5],328 ± 63 nM
O=C(C[C@H]1O[C@H](CO)[C@@H](O)[C@H](O)[C@@H]1O)NCCc1ccc(O)cc1 [Compound 96],Kd,FimH lectin domain [1]; [5],970 ± 382 nM
O=C(C[C@H]1O[C@H](CO)[C@@H](O)[C@H](O)[C@@H]1O)NCCCc1ccccc1 [Compound 93],Kd,FimH lectin domain [1]; [5],105 ± 44 nM
same,fold rise of FimH inhibitory capacity versus 91 and 92,FimH lectin domain [1]; SPR Kd,4 fold
O=[N+]([O-])c1ccc(C#CCO[C@H]2O[C@H](CO)[C@@H](O)[C@H](O)[C@@H]2O)cc1 [Compound 57],Kd,FimH lectin domain [1]; [4],816 ± 105 nM
OC[C@H]1O[C@H](OC/C=C/c2ccc(-c3ccccc3)cc2)[C@@H](O)[C@@H](O)[C@@H]1O [Compound 23],Kd,FimH lectin domain [1]; [4],3 ± 1.1 nM
CCCCSCCC[C@H]1O[C@H](CO)[C@@H](O)[C@H](O)[C@@H]1O [Compound 107],Kd,FimH lectin domain [1]; [4],22 ± 2.8 nM
OC[C@H]1O[C@H](C/C=C/c2ccc(-c3ccccc3)cc2)[C@@H](O)[C@@H](O)[C@@H]1O [Compound 116],Kd,FimH lectin domain [1]; [7],17 ± 3.5 nM
same,fold by which inhibition potential exceeds parent 115,FimH lectin domain [1]; SPR Kd,~4 fold
same,Kd,FimH; Table S2,58 ± 14 nM
OC[C@H]1O[C@H](OCCCc2ccc(-c3ccccc3)cc2)[C@@H](O)[C@@H](O)[C@@H]1O [Compound 27],Kd,FimH lectin domain [1]; [4],10 ± 0.2 nM
same,Kd,FimH; Tables 1-3,1.5 nM
CC(C)SCCCO[C@H]1O[C@H](CO)[C@@H](O)[C@H](O)[C@@H]1O [Compound 39],Kd,FimH lectin domain [1]; [4],11 ± 6.1 nM
OC[C@H]1O[C@H](OCC#Cc2ccccc2)[C@@H](O)[C@@H](O)[C@@H]1O [Compound 50],Kd,FimH lectin domain [1]; [4],168 ± 15 nM
O=S(=O)(NCCO[C@H]1O[C@H](CO)[C@@H](O)[C@H](O)[C@@H]1O)c1ccccc1 [Compound 70],Kd,FimH lectin domain [1]; [5],146 ± 26 nM
OC[C@H]1O[C@H](CCCc2ccc(-c3ccccc3)cc2)[C@@H](O)[C@@H](O)[C@@H]1O [Compound 120],Kd (nM),FimH lectin domain [1]; [6],nf
same,Kd SPR (nM),FimH lectin domain [1]; Table S2,nf
OC[C@H]1O[C@H](OCC#Cc2ccc(-c3ccccc3)cc2)[C@@H](O)[C@@H](O)[C@@H]1O [Compound 51],Kd,FimH lectin domain [1]; [4],405 ± 24 nM
CCCCSCCCO[C@H]1O[C@H](CO)[C@@H](O)[C@H](O)[C@@H]1O [Compound 36],Kd,FimH lectin domain [1]; [4],22 ± 2.7 nM
OC[C@H]1O[C@H](OCCCc2ccccc2-c2ccccc2)[C@@H](O)[C@@H](O)[C@@H]1O [Compound 28],Kd,FimH lectin domain [1]; [4],13 ± 1.7 nM
CCC[C@H]1O[C@H](CO)[C@@H](O)[C@H](O)[C@@H]1O [Compound 123],Kd,FimH lectin domain [1]; [7],266 ± 26 nM
CC(C)SCCC[C@H]1O[C@H](CO)[C@@H](O)[C@H](O)[C@@H]1O [Compound 110],Kd,FimH lectin domain [1]; [4],32 ± 4.1 nM
OC[C@H]1O[C@H](CCCc2ccccc2)[C@@H](O)[C@@H](O)[C@@H]1O [Compound 119],Kd,FimH lectin domain [1]; [7],49 ± 5.3 nM
"NCCCCCCCCO[C@H]1O[C@H](CO)[C@@H](O)[C@H](O)[C@@H]1O [Compound 5b, 8-aminooctyl α-D-mannopyranoside]",Kd,FimH lectin domain [1]; [4],18 ± 0.4 nM
same,Kd,FimH lectin domain [3],16.9 nM and 17 nM
C=CC[C@H]1O[C@H](CO)[C@@H](O)[C@H](O)[C@@H]1O [Compound 78],Kd,FimH lectin domain [1]; [7],118 ± 20 nM
OC[C@H]1O[C@H](OCCCc2cccc3ccccc23)[C@@H](O)[C@@H](O)[C@@H]1O [Compound 29],Kd,FimH lectin domain [1]; [4],22 ± 3 nM
"CCCCO[C@H]1O[C@H](CO)[C@@H](O)[C@H](O)[C@@H]1O [Compound 4, reference compound]",Kd,FimH; Tables 1-3,156 nM
OC[C@H]1O[C@H](OCC#Cc2cccs2)[C@@H](O)[C@@H](O)[C@@H]1O [Compound 54],Kd,FimH lectin domain [1]; [4],133 ± 31 nM
O=C(C[C@H]1O[C@H](CO)[C@@H](O)[C@H](O)[C@@H]1O)Nc1ccccc1 [Compound 91],Kd,FimH lectin domain [1]; [5],372 ± 26 nM
OCC#Cc1ccc(O[C@H]2O[C@H](CO)[C@@H](O)[C@H](O)[C@@H]2O)cc1 [Compound 61],Kd,"FimH lectin domain [1]; Kd SPR (nM), Table S2",6.9 ± 1 nM
same,Kd,FimH lectin domain [1]; [4],36.9 ± 3 nM
"CCCCCCCO[C@H]1O[C@H](CO)[C@@H](O)[C@H](O)[C@@H]1O [Compound 5, heptyl α-D-mannopyranoside, reference compound]",KA,FimH lectin domain [1]; [8],231691100 M⁻¹
same,Kd,FimH lectin domain [1]; [9],4.32 nM
same,Kd,FimH lectin domain [2]; [10],4.3 ± 0.3 nM
same,Kd,FimH; Tables 1-3,7.3 nM
COc1ccc(C#CCO[C@H]2O[C@H](CO)[C@@H](O)[C@H](O)[C@@H]2O)cc1 [Compound 56],Kd,FimH lectin domain [1]; [4],53 ± 2.3 nM
CCSCCCO[C@H]1O[C@H](CO)[C@@H](O)[C@H](O)[C@@H]1O [Compound 38],Kd,FimH lectin domain [1]; [4],14 ± 7.6 nM
OC[C@H]1O[C@H](CCCc2ccccc2-c2ccccc2)[C@@H](O)[C@@H](O)[C@@H]1O [Compound 121],Kd,FimH lectin domain [1]; [7],123 ± 21 nM
O=[N+]([O-])c1ccc(S(=O)(=O)NCCO[C@H]2O[C@H](CO)[C@@H](O)[C@H](O)[C@@H]2O)cc1 [Compound 71],Kd,FimH lectin domain [1]; [5],408 ± 52 nM
O=C(C[C@H]1O[C@H](CO)[C@@H](O)[C@H](O)[C@@H]1O)NCc1ccccc1 [Compound 92],Kd,FimH lectin domain [1]; [5],397 ± 83 nM
CCCSCCCO[C@H]1O[C@H](CO)[C@@H](O)[C@H](O)[C@@H]1O [Compound 37],Kd,FimH lectin domain [1]; [4],14 ± 5 nM
CC(C)c1cc(C(C)C)c(S(=O)(=O)NCCO[C@H]2O[C@H](CO)[C@@H](O)[C@H](O)[C@@H]2O)c(C(C)C)c1 [Compound 74],Kd,FimH lectin domain [1]; [5],37 ± 5 nM
OC[C@H]1O[C@H](OCCCc2ccccc2)[C@@H](O)[C@@H](O)[C@@H]1O [Compound 26],Kd,FimH lectin domain [1]; [4],59 ± 8.5 nM
OC[C@H]1O[C@H](CCCc2cccc3ccccc23)[C@@H](O)[C@@H](O)[C@@H]1O [Compound 122],Kd (nM),FimH lectin domain [1]; [6],nf
same,Kd SPR (nM),FimH lectin domain [1]; Table S2,nf
OC[C@H]1O[C@H](OCC#Cc2ccccc2-c2ccccc2)[C@@H](O)[C@@H](O)[C@@H]1O [Compound 52],Kd,FimH lectin domain [1]; [4],2250 ± 291 nM
OC[C@H]1O[C@H](OC/C=C/c2ccccc2)[C@@H](O)[C@@H](O)[C@@H]1O [Compound 22],Kd,FimH lectin domain [1]; [4],53 ± 7.5 nM
OC[C@H]1O[C@H](C/C=C/c2ccccc2-c2ccccc2)[C@@H](O)[C@@H](O)[C@@H]1O [Compound 117],Kd,FimH lectin domain [1]; [7],6.9 ± 5.7 nM
same,fold by which inhibition potential exceeds parent 115,FimH lectin domain [1]; SPR Kd,~26 fold
COCC#Cc1ccc(O[C@H]2O[C@H](CO)[C@@H](O)[C@H](O)[C@@H]2O)cc1 [Compound 62],Kd SPR (nM),FimH lectin domain [1]; Table S2,nf
same,Kd SPR (nM),"FimH lectin domain [1]; solution affinity by SPR competition, Tables 1-3",nf *
same,Kd,FimH; Tables 1-3,59.5 ± 2.3 nM
CCSCCC[C@H]1O[C@H](CO)[C@@H](O)[C@H](O)[C@@H]1O [Compound 109],Kd,FimH lectin domain [1]; [4],78 ± 5.6 nM
OC[C@H]1O[C@H](OCC#Cc2cccc3ccccc23)[C@@H](O)[C@@H](O)[C@@H]1O [Compound 53],Kd,FimH lectin domain [1]; [4],120 ± 18 nM
OC[C@H]1O[C@H](OC/C=C/c2cccc3ccccc23)[C@@H](O)[C@@H](O)[C@@H]1O [Compound 25],Kd,FimH lectin domain [1]; [4],5 ± 1.4 nM
same,Kd,FimH; Tables 1-3,71 nM
OC[C@H]1O[C@H](CCCSCc2ccccc2)[C@@H](O)[C@@H](O)[C@@H]1O [Compound 106],Kd,FimH lectin domain [1]; [4],25 ± 6.3 nM
"CCCCCCCCO[C@H]1O[C@H](CO)[C@@H](O)[C@H](O)[C@@H]1O [Compound 5a, octyl α-D-mannopyranoside, reference compound]",KA,FimH lectin domain [1]; [8],46550590.5 M⁻¹
same,Kd,FimH lectin domain [1]; [9],21.5 nM
same,Kd,FimH lectin domain [2]; [10],21 ± 0.2 nM
CC(C)(C)c1ccc(S(=O)(=O)NCCO[C@H]2O[C@H](CO)[C@@H](O)[C@H](O)[C@@H]2O)cc1 [Compound 73],Kd,FimH lectin domain [1]; [5],122 ± 11 nM
Cc1ccc(S(=O)(=O)NCCO[C@H]2O[C@H](CO)[C@@H](O)[C@H](O)[C@@H]2O)cc1 [Compound 72],Kd,FimH lectin domain [1]; [5],168 ± 64 nM
